{"source": "patent US20080118979A1", "about": "“Methods of regulating expression of genes or of gene products using substituted tetracycline compounds” (Paratek Pharmaceuticals, Inc., priority 2006, published 2008)", "key": {"[1]": {"conditions": "Mansuy and Bujard Curr. Op. Neurobiol. 10:593-96; cited from earlier work"}, "[2]": {"test_system": "transactivator fusion protein", "conditions": "as demonstrated in U.S. Pat. No. 5,789,156; cited from earlier work"}, "[3]": {"test_system": "rtTA2-MT2", "assay": "rtTA-mediated gene activation, luciferase positive cell line MT2", "assay_type": "cell-based", "from_the_text": "FIGS. 2A-2D show a comparison of doxycycline and 9-t-butyl doxcycline in 34R and MT2 rtTA mutants. FIGS. 2A and 2B show the effect of doxycyline on 34R and MT2 mutants, respectively. FIGS. 2C and 2D show the effect of 9-t-butyl doxycycline on 34R and MT2 mutants, respectively."}, "[4]": {"test_system": "tetR, luxCDABE operon under the regulation of the tetA promotor/operator", "assay": "JE305K+pTetLux1 tet detection system (Klux)", "assay_type": "cell-based", "from_the_text": "In another embodiment, a tetracycline compound of the invention can be used to regulate transcription of a gene or gene product under the control of a native Tet operator and in the presence of a native TetR in a cell. In one embodiment, the invention pertains to such a cell. For example, JE305K is a strain that has disrupted acrB and waaP genes and comprises a plasmid which contains tetR, and the luxCDABE operon (from P. luminescens) under the regulation of the tetA promotor/operator.\nThe substituted tetracycline compounds were examined in a dose response analysis using the JE305K+pTetLux1 tet detection system. JE305K is a strain that has disrupted acrB and waaP genes. pTetLux1 is a plasmid which contains tetR, and has the luxCDABE operon (from P. luminescens) under the regulation of the tetA promotor/operator. The plasmid was obtained from the University of Turku, Finland."}}, "data": [{"molecule": "C[C@H]1c2cccc(O)c2C(=O)C2=C(O)[C@]3(O)C(=O)C(C(N)=O)=C(O)[C@@H](N(C)C)[C@@H]3[C@@H](O)[C@@H]21", "note": "[doxycycline]", "values": [{"measurement": "penetration of the blood-brain barrier", "setting": "[1]", "value": "limited penetration of the blood-brain barrier"}]}, {"molecule": "Cc1c2c(c(O)c3c(O)cccc13)C(=O)[C@]1(O)C(=O)C(C(N)=O)=C(O)[C@@H](N(C)C)[C@@H]1C2", "note": "[anhydrotetracycline]", "values": [{"measurement": "strength as inducing agent", "setting": "[2]", "value": "strong inducing agents"}]}, {"molecule": "5-phenylcarbamate doxcycline", "values": [{"measurement": "activation of rtTA2s-M2 compared with doxycycline", "setting": "[3]", "value": "two fold better activator"}]}, {"molecule": "CCCC#Cc1ccc(O)c2c1C[C@H]1C[C@H]3[C@H](N(C)C)C(O)=C(C(N)=O)C(=O)[C@@]3(O)C(O)=C1C2=O", "values": [{"measurement": "activity in the JE305K+pTetLux1 assay", "setting": "[4]", "value": "active"}]}]}
